The assay addresses D(3) dopamine receptor (Homo sapiens, UniProt P35462). Nature of the assay: Agonist activity at human D3 receptor expressed in CHO cells assessed as stimulation of […] mitogenesis.

By EC50 is commonly meant the concentration giving half of the maximal effect.

D(3) dopamine receptor, sequence (P35462 as listed by the source): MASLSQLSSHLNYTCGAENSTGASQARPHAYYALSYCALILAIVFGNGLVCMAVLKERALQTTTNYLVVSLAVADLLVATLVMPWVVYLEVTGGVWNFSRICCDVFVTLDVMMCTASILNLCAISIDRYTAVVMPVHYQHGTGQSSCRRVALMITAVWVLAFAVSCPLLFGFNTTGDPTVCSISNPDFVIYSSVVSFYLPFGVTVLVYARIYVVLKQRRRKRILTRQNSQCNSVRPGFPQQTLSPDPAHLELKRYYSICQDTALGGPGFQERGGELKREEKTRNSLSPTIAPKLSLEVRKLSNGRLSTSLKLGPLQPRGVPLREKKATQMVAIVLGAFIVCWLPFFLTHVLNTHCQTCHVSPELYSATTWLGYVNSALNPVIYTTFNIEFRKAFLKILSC

Regarding `CCc1cc(Cl)c(OC)c(N2CCN(C[C@H](O)CCNC(=O)c3cc4ccccc4[nH]3)CC2)c1`, the EC50 is greater than 3.2 µM. Turning to `CCc1cc(Cl)c(OC)c(N2CCN(C[C@@H](O)CCNC(=O)c3cc4ccccc4[nH]3)CC2)c1`, the half-maximal effective concentration (EC50) was greater than 6.8 µM.
